Several values for one entry are separate records, joined by “and”; a condition that tells them apart may be missing. Identical values can stand only once. Entries after “also recorded” stand apart in the source; their conditions may differ. Like-named read-outs stand apart in the source and are kept apart here.
How the values were obtained:
jack bean urease [1] = target: T1, jack bean urease (Canavalia ensiformis, UniProt P07374); assay: biochemical
Experimental: The jack bean urease action was determined by measuring the ammonia produced by the indophenol method described by Weatherburn. The reaction mixtures, containing 50 µL of buffer (100 mM urea, 10 mM dibasic potassium phosphate, 1 mM EDTA and 10 mM LiCl, pH 8.2), 20 µL of sample and 20 µL of the jack bean urease (5 U/mL) were added in a 96-well plate and the plate was incubated at 37 °C for 30 min. After incubation, 50 μL of phenol reagent (1%, w/v phenol and 0.005%, w/v sodium nitroprusside) and 50 μL of alkali reagents (0.5%, w/v NaOH and 0.1% NaOCl) were added in each well, and again the plate was incubated at 37 °C for 10 min. After the second incubation, the absorbance was checked at 625 nm, using a microplate reader (OPTIMax, Tunable, Sunnyvale, CA, USA). All reactions were performed in triplicate. The urease inhibition activity was calculated according to the following formula:Inhibition (%) = [(B − S)/B] × 100 where B and S are the optical densities of sample and blank. Thiourea was used as reference.

[2] = Free radical scavenging assay (DPPH); conditions: in comparison to the reference drug vitamin C
Experimental: Radical scavenging activity was determined by adjusting the already reported 2,2-diphenyl-1-picrylhydrazyl (DPPH) assay method. The assay arrangement comprised 100 µL of DPPH (150 µM), 20 µL of increasing concentrations of test compounds and the volume was adjusted to 200 µL in each well with DMSO. At a room temperature, the reaction mixture was incubated for 30 min. Ascorbic acid (Vitamin C) was utilized as a model inhibitor. The assay estimations were done by using a micro plate reader (OPTIMax, Tunable, Sunnyvale, CA, USA) at 517 nm. The response rates were analyzed and the percent inhibition caused by the presence of the tested inhibitor was calculated. Each concentration was analyzed in three independent experiments run thrice.

jack bean urease [3] = target: T1, jack bean urease; assay: Kinetic mechanism study of urease inhibition (Lineweaver–Burk plots); assay type: biochemical; conditions: for Ki′ (ESI dissociation constant): from intercept versus inhibitor concentration; for Inhibition Type: urea as substrate
Experimental: Kinetic analysis was carried out to determine the mode of inhibition. […] Kinetics were determined by varying the dose of urea in the presence of different doses of compound 3e (0.025, 0.05, 0.01 and 0.02 µM), compound 6a (0.00, 0.0011, 0.0022, and 0.0044 µM), compound 9e (0.00, 0.015, 0.03 and 0.06 µM) and compound 12d (0.0130, 0.026, 0.052, 0.104 and 0.208 µM). In detail the urea doses were varied between 100, 50, 25, 12.5, 6.25 and 3.125 mM mM for urease kinetics studies and the rest of the procedure was same for all kinetic studies as described in the urease inhibition assay protocol. Maximal initial velocities were determined from the initial linear portion of the absorbances up to 10 min after the addition of enzyme at per minute’s intervals. The inhibition type of the enzyme was assayed by Lineweaver–Burk plots of the inverse of velocities (1/V) versus the inverse of substrate concentration 1/[S] mM^−1. The EI dissociation constant Ki was determined by the secondary plot of 1/V versus inhibitor concentration and the ESI dissociation constant Ki′ was calculated from the intercept versus inhibitor concentrations. Urease activity was determined by measuring ammonia production using the indophenol method as reported previously. The results (change in absorbance per min) were recorded at 625 nm using a microplate reader (Optimax Tunable, Sunnyvale, CA, USA).

[4] = Urease Activity IC50 ± SEM, 100 mM urea, pH 8.2, 37 °C
[5] = 100 mM urea, pH 8.2, 37 °C, read-out: Urease Activity IC50 ± SEM

T1 sequence (P07374 whole entry, looked up): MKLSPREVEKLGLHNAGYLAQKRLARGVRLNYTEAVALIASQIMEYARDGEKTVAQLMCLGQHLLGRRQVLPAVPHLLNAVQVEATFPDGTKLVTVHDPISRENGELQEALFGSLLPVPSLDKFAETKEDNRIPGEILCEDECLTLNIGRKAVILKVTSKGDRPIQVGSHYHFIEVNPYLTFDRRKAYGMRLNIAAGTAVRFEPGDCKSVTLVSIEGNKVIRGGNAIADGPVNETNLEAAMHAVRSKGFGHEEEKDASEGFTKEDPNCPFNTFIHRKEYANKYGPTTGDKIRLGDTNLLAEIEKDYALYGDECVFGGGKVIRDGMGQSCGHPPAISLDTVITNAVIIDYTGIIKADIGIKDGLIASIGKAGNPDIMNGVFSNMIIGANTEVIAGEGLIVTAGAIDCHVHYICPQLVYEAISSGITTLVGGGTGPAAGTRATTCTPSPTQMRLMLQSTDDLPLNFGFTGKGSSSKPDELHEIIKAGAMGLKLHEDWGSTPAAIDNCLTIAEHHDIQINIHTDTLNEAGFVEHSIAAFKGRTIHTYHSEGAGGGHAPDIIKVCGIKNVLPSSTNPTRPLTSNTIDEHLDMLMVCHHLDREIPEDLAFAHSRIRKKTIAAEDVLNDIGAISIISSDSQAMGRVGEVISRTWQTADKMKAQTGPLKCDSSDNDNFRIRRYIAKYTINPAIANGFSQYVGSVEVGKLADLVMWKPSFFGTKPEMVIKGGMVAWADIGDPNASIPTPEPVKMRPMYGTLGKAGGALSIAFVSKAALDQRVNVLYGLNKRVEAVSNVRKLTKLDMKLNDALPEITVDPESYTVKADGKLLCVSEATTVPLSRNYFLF

With `Cc1ccc(S(=O)(=O)NNC(N)=S)cc1[N+](=O)[O-]` [Compound 12f, 2-((4-Methyl-3-nitrophenyl)sulfonyl)hydrazine-1-carbothioamide] the IC50 (jack bean urease [1]; [4]) was 67 ± 2.9 nM, the melting point was 160 to 163 °C and the radical scavenging potency [2] was “excellent radical scavenging potency”.
For `Cc1ccc(S(=O)(=O)Nc2ccc(S(=O)(=O)Nc3ncccn3)cc2)cc1` [Compound 6a, 4-Methyl-N-(4-(N-(pyrimidin-2-yl)sulfamoyl)phenyl)benzenesulfonamide], the IC50 (jack bean urease [1]; [4]) was 2.23 nM and 2.2 nM and 2 nM, the melting point was 223 to 225 °C and the Ki (jack bean urease [3]) was 1.1 nM. For the same compound, the “Ki′ (ESI dissociation constant)” value (jack bean urease [3]) was 0.0016 µM, the Vmax (jack bean urease [3]; inhibitor dose 0.0011 µM) was 0.00769 ΔA/Min and the Vmax (jack bean urease [3]; inhibitor dose 0.0022 µM) was 0.00493 ΔA/Min. For the same compound, the Vmax (jack bean urease [3]; inhibitor dose 0.0044 µM) was 0.00351 ΔA/Min and the “Inhibition Type” value (jack bean urease [3]) was “mixed type of mode inhibition”.
`O=S(=O)(Nc1ccc(S(=O)(=O)Nc2ncccn2)cc1)c1ccc(-c2ccccc2)cc1` [Compound 6c, N-(4-(N-(pyrimidin-2-yl)sulfamoyl)phenyl)-[1,1′-biphenyl]-4-sulfonamide] gave an IC50 (jack bean urease [1]; [4]) of 141 ± 7 nM and a melting point of 168 to 170 °C.
“2-((3,5-Dimethylphenyl)sulfonyl)hydrazine-1-carbothioamide [Compound 6e]” gave an IC50 (jack bean urease [1]; [5]) of 174 ± 9 nM.
In the case of “2-((4-Methyl-3-nitrophenyl)sulfonyl)hydrazine-1-carbothioamide [Compound 6f]”, the IC50 (jack bean urease [1]; [5]) is reported as 127 ± 7.6 nM.
Compound `O=S(=O)(NC12CC3CC(CC(C3)C1)C2)c1ccc(-c2ccccc2)cc1` [Compound 9c, N-(Adamantan-1-yl)-[1,1′-biphenyl]-4-sulfonamide] has an IC50 (jack bean urease [1]; [4]) of 17.8 nM.
With `NC(=S)NNS(=O)(=O)c1ccc([N+](=O)[O-])cc1` [Compound 12b, 2-((4-Nitrophenyl)sulfonyl)hydrazine-1-carbothioamide] the IC50 (jack bean urease [1]; [4]) was 141 ± 4 nM, the melting point was 160 to 162 °C and the radical scavenging potency [2] was “excellent radical scavenging potency”.
`Cc1ccc(S(=O)(=O)NC23CC4CC(CC(C4)C2)C3)cc1[N+](=O)[O-]` [Compound 9f, N-(Adamantan-1-yl)-4-methyl-3-nitrobenzenesulfonamide] gave an IC50 (jack bean urease [1]; [4]) of 55.8 ± 1 nM.
`Cc1ccc(S(=O)(=O)NC23CC4CC(CC(C4)C2)C3)cc1` [Compound 9a, N-(Adamantan-1-yl)-4-methylbenzenesulfonamide] gave an IC50 (jack bean urease [1]; [4]) of 289 ± 15 nM.
“2-((2,3-Dichlorophenyl)sulfonyl)hydrazine-1-carbothioamide [Compound 6d]” showed an IC50 (jack bean urease [1]; [5]) of 95 ± 4 nM.
`O=[N+]([O-])c1ccccc1S(=O)(=O)Nc1ccc(S(=O)(=O)Nc2ncccn2)cc1` [Compound 6b, 2-Nitro-N-(4-(N-(pyrimidin-2-yl)sulfamoyl)phenyl)benzenesulfonamide] gave an IC50 (jack bean urease [1]; read-out: Urease Activity IC50 ± SEM, 100 mM urea, pH 8.2, 37 °C) of 233 ± 11 nM.
With `NC(=S)NNS(=O)(=O)c1ccc(-c2ccccc2)cc1` [Compound 12c, 2-([1,1′-Biphenyl]-4-ylsulfonyl)hydrazine-1-carbothioamide] the IC50 (jack bean urease [1]; [4]) was 186 ± 7 nM.
In the case of `O=S(=O)(NC12CC3CC(CC(C3)C1)C2)c1cccc(Cl)c1Cl` [Compound 9d, N-(Adamantan-1-yl)-2,3-dichlorobenzenesulfonamide], the IC50 (jack bean urease [1]; [4]) is reported as 53.3 ± 1 nM and the melting point is reported as 221 to 230 °C.
`O=[N+]([O-])c1ccc(S(=O)(=O)NC23CC4CC(CC(C4)C2)C3)cc1` [Compound 9b, N-(Adamantan-1-yl)-4-nitrobenzenesulfonamide] gave an IC50 (jack bean urease [1]; [4]) of 27.6 ± 1 nM.
With `Cc1cc(C)cc(S(=O)(=O)NNC(N)=S)c1` [Compound 12e, 2-((3,5-Dimethylphenyl)sulfonyl)hydrazine-1-carbothioamide] the IC50 (jack bean urease [1]; [4]) was 96 ± 4 nM, the melting point was 160 to 162 °C and the radical scavenging potency [2] was “excellent radical scavenging potency”.
`Cc1cc(C)cc(S(=O)(=O)NC23CC4CC(CC(C4)C2)C3)c1` [Compound 9e, N-(Adamantan-1-yl)-3,5-dimethylbenzenesulfonamide] showed an IC50 (jack bean urease [1]; [4]) of 25 nM, a melting point of 162 to 164 °C and a Ki (jack bean urease [3]) of 22.5 nM. The Vmax (jack bean urease [3]; inhibitor dose 0.013 µM) was 0.00299 ΔA/Min, the Vmax (jack bean urease [3]; inhibitor dose 0.015 µM) was 0.00127 ΔA/Min and the Vmax (jack bean urease [3]; inhibitor dose 0.03 µM) was 0.00108 ΔA/Min. The Vmax (jack bean urease [3]; inhibitor dose 0.06 µM) was 0.00085 ΔA/Min and the “Inhibition Type” value (jack bean urease [3]) was “non-competitive mode of inhibition; also recorded: non-competitive mechanism; also recorded: Noncompetitive”.
For `NC(=S)NNS(=O)(=O)c1cccc(Cl)c1Cl` [Compound 12d, 2-((2,3-Dichlorophenyl)sulfonyl)hydrazine-1-carbothioamide], the IC50 (jack bean urease [1]; [4]) was 26.6 nM and 26 nM, the melting point was 229 to 231 °C and the radical scavenging potency [2] was “excellent radical scavenging potency”. The Ki (jack bean urease [3]) was 53 nM, the “Ki′ (ESI dissociation constant)” value (jack bean urease [3]) was 0.125 µM and the Vmax (jack bean urease [3]; inhibitor dose 0.026 µM) was 0.00213 ΔA/Min. For the same compound, the Vmax (jack bean urease [3]; inhibitor dose 0.052 µM) was 0.00194 ΔA/Min, the Vmax (jack bean urease [3]; inhibitor dose 0.104 µM) was 0.0016 ΔA/Min and the Vmax (jack bean urease [3]; inhibitor dose 0.208 µM) was 0.001 ΔA/Min. For the same compound, the “Inhibition Type” value (jack bean urease [3]) was “mixed type of mode inhibition”.
With `NC(N)=S` [Thiourea, reference compound] the IC50 (jack bean urease [1]; [5]) was 17810 ± 96 nM.
With `Cc1ccc(S(=O)(=O)NNC(N)=S)cc1` [Compound 12a, 2-Tosylhydrazine-1-carbothioamide] the IC50 (jack bean urease [1]; [4]) was 225 ± 6 nM and the radical scavenging potency [2] was “excellent radical scavenging potency”.
